From patent US10189853B2, “Conformationally restricted 4-substituted-2,6-dimethylfuro[2,3-d]pyrimidines as anti-tumor agents” (DUQUESNE UNIVERSITY OF THE HOLY SPIRIT, priority 2014, dated 2019)
Like-named read-outs stand apart in the source and are kept apart here.

Key:
PDGFR-β = PDGFR-β (Homo sapiens (Human), UniProt P09619); test: PDGFR-β kinase inhibition, phosphotyrosine ELISA cytoblot; format: cell-based; conditions: SH-SY5Y cells, phosphotyrosine ELISA
Method: (§1) Cells used were tumor cell lines naturally expressing high levels of EGFR (A431), VEGFR-2 (U251), and PDGFR-β (SH-SYSY). […] The reaction was stopped and cells were permeabilized by quickly removing the media from the cells and adding ice-cold Tris-buffered saline (TBS) containing 0.05% Triton X-100, protease inhibitor cocktail and tyrosine phosphatase inhibitor cocktail. The TBS solution was then removed and cells fixed to the plate for 30 min at 60° C. and further incubation in 70% ethanol for an additional 30 min. Cells were further exposed to block (TBS with 1% BSA) for 1 h, washed, and then a horseradish peroxidase (HRP)-conjugated phosphotyrosine (PY) antibody was added overnight.

EGFR = EGFR (Homo sapiens (Human), UniProt P00533); test: EGFR kinase inhibition, phosphotyrosine ELISA cytoblot; format: cell-based; conditions: A431 cells
Chain of EGFR (P00533 25-1210): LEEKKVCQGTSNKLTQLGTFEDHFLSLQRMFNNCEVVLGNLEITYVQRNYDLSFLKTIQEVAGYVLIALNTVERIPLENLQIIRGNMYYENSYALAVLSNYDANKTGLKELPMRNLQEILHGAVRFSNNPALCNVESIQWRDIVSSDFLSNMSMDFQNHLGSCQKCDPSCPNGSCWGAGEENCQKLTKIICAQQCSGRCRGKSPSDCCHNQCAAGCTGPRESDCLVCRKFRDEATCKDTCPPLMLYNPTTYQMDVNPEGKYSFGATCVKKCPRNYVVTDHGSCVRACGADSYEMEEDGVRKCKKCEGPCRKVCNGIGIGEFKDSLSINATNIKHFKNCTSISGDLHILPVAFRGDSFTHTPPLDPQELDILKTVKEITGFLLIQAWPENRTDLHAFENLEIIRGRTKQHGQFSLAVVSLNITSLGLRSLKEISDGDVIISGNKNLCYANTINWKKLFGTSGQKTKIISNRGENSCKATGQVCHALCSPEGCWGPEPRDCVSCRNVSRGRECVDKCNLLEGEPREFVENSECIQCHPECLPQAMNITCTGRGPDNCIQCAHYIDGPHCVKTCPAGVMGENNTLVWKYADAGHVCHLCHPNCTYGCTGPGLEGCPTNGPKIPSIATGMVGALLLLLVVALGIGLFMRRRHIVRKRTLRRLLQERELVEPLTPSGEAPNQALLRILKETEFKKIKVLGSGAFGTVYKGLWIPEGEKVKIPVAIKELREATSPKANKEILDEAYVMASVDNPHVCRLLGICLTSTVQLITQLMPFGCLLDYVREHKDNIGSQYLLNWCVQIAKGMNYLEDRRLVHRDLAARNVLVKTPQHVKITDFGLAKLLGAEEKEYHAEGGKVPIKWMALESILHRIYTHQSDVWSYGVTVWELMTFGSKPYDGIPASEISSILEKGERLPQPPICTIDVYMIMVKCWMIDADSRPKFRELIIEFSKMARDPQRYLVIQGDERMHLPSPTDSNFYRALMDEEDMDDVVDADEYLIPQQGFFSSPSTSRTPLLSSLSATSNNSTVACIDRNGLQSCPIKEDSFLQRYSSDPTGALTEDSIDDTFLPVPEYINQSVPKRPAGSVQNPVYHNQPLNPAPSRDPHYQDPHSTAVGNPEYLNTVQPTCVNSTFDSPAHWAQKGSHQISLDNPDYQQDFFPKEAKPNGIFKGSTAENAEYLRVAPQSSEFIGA
Method: as §1

[1] = test system: cellular microtubules in A-10 cells; test: Microtubule depolymerization, indirect immunofluorescence; format: cell-based; conditions: for EC50: A-10 cells, 18 h, read-out: EC50 for MT depolymerization in A-10 cells; for effect on cellular microtubules: in words
Method: Evaluation of microtubule inhibition was performed using previously described methods.^22 Indirect immunofluorescence was used to evaluate the effects of the compounds on cellular microtubules as described previously.^38 Briefly, A-10 cells were treated for 18 h with vehicle (DMSO) or a compound, and microtubule effects were evaluated microscopically using β-tubulin antibody. The EC50 was calculated from 3 independent experiments and expressed as the mean±SD.

A431 cancer cells = test: A431 cytotoxicity (cell proliferation); format: cell-based, human
VEGFR-2 = VEGFR-2 (Homo sapiens (Human), UniProt P35968); test: VEGFR-2 kinase inhibition, phosphotyrosine ELISA cytoblot; format: cell-based; conditions: U251 cells, phosphotyrosine ELISA
Chain of VEGFR-2 (P35968 20-1356): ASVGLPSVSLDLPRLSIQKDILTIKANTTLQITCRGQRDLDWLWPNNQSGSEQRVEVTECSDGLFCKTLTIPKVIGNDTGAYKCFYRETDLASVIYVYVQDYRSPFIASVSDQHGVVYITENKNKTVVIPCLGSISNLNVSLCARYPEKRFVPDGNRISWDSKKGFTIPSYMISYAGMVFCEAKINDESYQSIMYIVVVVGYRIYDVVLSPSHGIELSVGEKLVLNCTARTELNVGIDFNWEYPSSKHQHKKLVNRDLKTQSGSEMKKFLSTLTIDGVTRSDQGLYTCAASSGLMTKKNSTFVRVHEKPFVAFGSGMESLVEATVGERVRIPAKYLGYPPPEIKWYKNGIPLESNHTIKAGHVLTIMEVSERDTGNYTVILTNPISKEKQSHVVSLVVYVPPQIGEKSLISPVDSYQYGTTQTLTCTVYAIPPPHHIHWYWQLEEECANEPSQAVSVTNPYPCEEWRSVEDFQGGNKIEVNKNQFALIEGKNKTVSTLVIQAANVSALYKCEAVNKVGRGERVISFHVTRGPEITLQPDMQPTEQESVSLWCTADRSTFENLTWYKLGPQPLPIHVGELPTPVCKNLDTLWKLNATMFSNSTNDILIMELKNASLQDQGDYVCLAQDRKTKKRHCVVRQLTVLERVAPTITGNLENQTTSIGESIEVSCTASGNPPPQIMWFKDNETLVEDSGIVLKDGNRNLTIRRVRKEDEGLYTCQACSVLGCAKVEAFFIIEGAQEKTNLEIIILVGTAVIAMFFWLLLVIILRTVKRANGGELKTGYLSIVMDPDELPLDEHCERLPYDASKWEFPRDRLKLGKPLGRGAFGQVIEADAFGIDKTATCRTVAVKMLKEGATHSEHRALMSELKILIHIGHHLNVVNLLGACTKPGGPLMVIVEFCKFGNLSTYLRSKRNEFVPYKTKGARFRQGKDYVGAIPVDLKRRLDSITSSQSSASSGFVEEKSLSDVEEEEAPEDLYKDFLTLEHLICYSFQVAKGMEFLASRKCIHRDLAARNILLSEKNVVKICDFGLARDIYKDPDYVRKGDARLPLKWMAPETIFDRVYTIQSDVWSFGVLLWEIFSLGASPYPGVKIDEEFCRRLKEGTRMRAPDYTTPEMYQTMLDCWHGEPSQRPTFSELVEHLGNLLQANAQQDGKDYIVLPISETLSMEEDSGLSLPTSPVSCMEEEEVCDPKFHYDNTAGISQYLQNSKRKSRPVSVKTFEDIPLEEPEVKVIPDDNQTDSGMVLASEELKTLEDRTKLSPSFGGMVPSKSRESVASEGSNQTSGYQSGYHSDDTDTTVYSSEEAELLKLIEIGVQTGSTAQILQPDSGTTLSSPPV
Method: as §1

[2] = test system: M6/6 cells (SK-OV-3 expressing Pgp); test: Antiproliferative SRB assay; conditions: for IC50: read-out: IC50 ± SD in M6/6 cells, SRB, 48 h
MDA-435 cells = test: Antiproliferative SRB assay; format: cell-based; conditions: read-out: IC50 ± SD in MDA-435 cells
SKOV3 cells = test: Antiproliferative SRB assay; format: cell-based; conditions: read-out: IC50 ± SD in SKOV3 cells
[3] = test system: WTβ3 cells (HeLa overexpressing βIII tubulin); test: Antiproliferative SRB assay; format: cell-based; conditions: SRB, 48 h, read-out: IC50 ± SD in WTβ3
[4] = test system: chicken embryo chorioallantoic membrane; test: Chorioallantoic membrane (CAM) assay of angiogenesis; conditions: Gallus gallus, 48 h, read-out: CAM angiogenesis inhibition
purified tubulin = test: Inhibition of tubulin assembly; format: biochemical; conditions: read-out: Inhibition tubulin assembly IC50 ± SD
HeLa cells = test: Antiproliferative SRB assay; format: cell-based; conditions: 48 h, read-out: IC50 ± SD in HeLa
[5] = test system: colchicine site on tubulin; test: Inhibition of [3H]colchicine binding; conditions: 5 μM

Chain of PDGFR-β (P09619 33-1106): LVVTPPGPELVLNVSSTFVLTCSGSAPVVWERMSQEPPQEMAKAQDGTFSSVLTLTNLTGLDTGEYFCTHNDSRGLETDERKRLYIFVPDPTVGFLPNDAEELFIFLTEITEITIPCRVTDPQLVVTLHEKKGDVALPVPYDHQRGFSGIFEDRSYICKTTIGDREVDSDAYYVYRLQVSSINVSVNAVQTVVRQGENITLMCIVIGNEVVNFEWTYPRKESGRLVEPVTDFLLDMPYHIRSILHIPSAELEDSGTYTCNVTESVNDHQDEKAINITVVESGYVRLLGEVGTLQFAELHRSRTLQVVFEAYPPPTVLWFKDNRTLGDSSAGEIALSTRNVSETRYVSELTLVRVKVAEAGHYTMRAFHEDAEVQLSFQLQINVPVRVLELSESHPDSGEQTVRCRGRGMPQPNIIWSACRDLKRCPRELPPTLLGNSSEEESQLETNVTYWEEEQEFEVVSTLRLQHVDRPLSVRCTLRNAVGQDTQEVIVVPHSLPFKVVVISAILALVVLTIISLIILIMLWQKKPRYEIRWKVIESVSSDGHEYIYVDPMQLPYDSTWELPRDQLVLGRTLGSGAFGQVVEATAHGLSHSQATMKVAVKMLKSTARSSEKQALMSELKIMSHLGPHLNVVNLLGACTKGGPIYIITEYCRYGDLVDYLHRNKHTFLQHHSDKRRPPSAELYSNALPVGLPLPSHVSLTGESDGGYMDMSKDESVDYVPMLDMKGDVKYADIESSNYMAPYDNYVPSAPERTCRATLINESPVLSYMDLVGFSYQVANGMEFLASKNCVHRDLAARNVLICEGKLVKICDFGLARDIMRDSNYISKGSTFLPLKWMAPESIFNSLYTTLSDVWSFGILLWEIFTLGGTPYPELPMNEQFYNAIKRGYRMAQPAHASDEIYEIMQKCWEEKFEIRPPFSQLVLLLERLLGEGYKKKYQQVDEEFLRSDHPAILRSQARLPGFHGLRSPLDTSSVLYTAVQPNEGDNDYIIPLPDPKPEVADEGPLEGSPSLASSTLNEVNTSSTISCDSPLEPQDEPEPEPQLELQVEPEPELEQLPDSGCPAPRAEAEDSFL

| Compound | IC50 (PDGFR-β) [nM] | IC50 (EGFR) [nM] | EC50 ([1]; Rattus norvegicus, A10) [nM] | effect on cellular microtubules [1] | IC50 (A431 cancer cells; Homo sapiens, A-431) [nM] | IC50 (VEGFR-2) [nM] | IC50 [2] [nM] | also measured |
| --- | --- | --- | --- | --- | --- | --- | --- | --- |
| COc1ccc2c(c1)CCN2c1nc(C)nc2oc(C)cc12 [Compound 8, 4-(5-methoxyindolin-1-yl)-2,6-dimethylfuro[2,3-d]pyrimidine] | 73.2 ± 4.9 | 103 ± 18.2 | > 10000 | no effect on cellular microtubules | 42.2 ± 5 | 20.9 ± 3.7 |  |  |
| CCCOc1ccc(N(C)c2nc(C)nc3oc(C)cc23)cc1 [Compound 12, N-2,6-trimethyl-N-(4-propoxyphenyl)furo[2,3-d]pyrimidin-4-amine] |  |  |  |  |  |  | 30.8 ± 1.7 | Rr value (relative resistance) ([2]; M6/6 (Pgp) vs SKOV3): 1.3; IC50 (A431 cancer cells): 92.9 ± 10.1 nM |
| CC(=O)O[C@H]1C(=O)[C@@]2(C)[C@H]([C@H](OC(=O)c3ccccc3)[C@]3(O)C[C@H](OC(=O)[C@H](O)[C@@H](NC(=O)c4ccccc4)c4ccccc4)C(C)=C1C3(C)C)[C@]1(OC(C)=O)CO[C@@H]1C[C@@H]2O [Paclitaxel, reference compound] |  |  |  |  |  |  |  | IC50 (MDA-435 cells; MDA435, 48 h): 3.3 ± 0.3 nM; IC50 (SKOV3 cells; Homo sapiens, SK-OV-3, 48 h): 6.3 ± 0.4 nM; IC50 ([3]; Homo sapiens, HeLa): 32.9 ± 5.8 nM |
| COc1ccc(N(C)c2nc(C)nc3oc(C)cc23)cc1OC [Compound 3, N-(3,4-dimethoxyphenyl)-N,2,6-trimethylfuro[2,3-d]pyrimidin-4-amine] | 66.1 ± 8.1 | 90.3 ± 10.2 |  | dose-dependent loss of cellular microtubules | 9.7 ± 1.2 | 18.6 ± 3 |  |  |
| CCOc1ccc(N(C)c2nc(C)nc3oc(C)cc23)cc1 [Compound 11, N-(4-ethoxyphenyl)-N,2,6-trimethylfuro[2,3-d]pyrimidin-4-amine] |  |  | > 10000 |  | 11.6 ± 2.1 |  |  | IC50 [4]: 50100 ± 8200 nM |
| COc1ccc(/C=C\c2cc(OC)c(OC)c(OC)c2)cc1O [CA-4, combretastatin A-4, reference compound] |  |  |  |  |  |  | 3 ± 0.3 | IC50 (MDA-435 cells; 48 h): 5 ± 0.3 nM; EC50 [1]: 9.8 nM; IC50 (purified tubulin): 1000 ± 90 nM; IC50 (HeLa cells): 5.6 ± 0.3 nM; Inhibition of colchicine binding % inhibition ± SD [5]: 99 ± 0.2%; IC50 (SKOV3 cells; 48 h): 6.9 ± 0.1 nM; IC50 [3]: 5.7 ± 0.4 nM |
